{"source": "paper PMC11111408", "about": "“Concurrent inhibition of oncogenic and wild-type RAS-GTP for cancer therapy” (Nature, 2024)", "key": {"NCI-H441 CDX tumours": {"test_system": "NCI-H441 CDX tumours", "assay": "NCI-H441 CDX efficacy study", "format": "in vivo, mouse", "settings": "NCI-H441 model, 10 mg kg^−1 daily oral, 28 days", "method": "Xenograft studies were conducted at GenenDesign, Pharmaron, Wuxi AppTec, the laboratory of P. Lito, and the laboratory of C. Ambrogio. […] All procedures related to animal handling, care and treatment were conducted in compliance with all applicable regulations and guidelines of the relevant Institutional Animal Care and Use Committee (IACUC). […] Experimental details are supplied in the Supplementary Methods."}, "KRAS^G12A": {"target": "KRAS^G12A (Homo sapiens, UniProt P01116+P62937, G12A)", "assay": "Cellular RAS–CYPA binding (tri-complex formation), nano-BRET in U2OS cells", "format": "cell-based", "design": "expressed in transfected cells; host or cells: U2OS or U2OS PPIA-KO", "settings": "(95% CI)", "excerpt": "(§1) KRAS4B, or other small GTPases, containing the indicated mutations were cloned in pNLF-N or pHTN plasmids for expression with an N-terminal nanoluciferase or HaloTag fusion, respectively. […] The following day, the cells were collected by Trypsin and reseeded in a white tissue culture-treated 96-well plate in OptiMem phenol red-free medium (Gibco) containing 4% FBS and a 1:1,000 dilution of NanoBRET 618 HaloTag ligand (Promega). For endpoint concentration response curves, vivazine nanoluciferase substrate was added to 1× concentration in OptiMem phenol red-free medium with 4% FBS. Varying concentrations of inhibitor were added and incubated for 1 or 4 h before the nano-BRET signal was measured on a Perkin Elmer Envision plate reader. For kinetic assays, endurazine nanoluciferase substrate was used in place of vivazine, and the plate was placed in a Cytation5 multi-mode reader pre-equilibrated to 37 °C and 5% CO2."}, "KRAS^Q61H": {"target": "KRAS^Q61H (Homo sapiens, UniProt P01116+P62937, Q61H)", "assay": "Cellular RAS–CYPA binding (tri-complex formation), nano-BRET in U2OS cells", "format": "cell-based", "design": "expressed in transfected cells; host or cells: U2OS or U2OS PPIA-KO", "settings": "(95% CI)", "excerpt": "as §1"}, "RAS": {"target": "RAS", "assay": "Binding of the CYPA–RMC-7977 binary complex to RAS (Kd2), SPR", "design": "species or system human", "settings": "all three wild-type RAS proteins", "excerpt": "The basic nitrogen of the piperazine forms a cation–π interaction with W121. e, Oriented by the hydrogen bond to CYPA W121, RAS Y64 forms π-stacking interactions with the pyridine and indole groups. […] Data are mean ± s.d. of independent experiments (KRAS variants (green): wild-type (WT) KRAS, n = 4; KRAS(G12C), KRAS(G12D), KRAS(G12R), KRAS(G12V), KRAS(G13D), n = 6; NRAS variants (blue): NRAS(WT), NRAS(Q61L), n = 4; NRAS(Q61K), NRAS(Q61R), n = 6; HRAS variants (purple): HRAS(WT), n = 5; HRAS(G13R), n = 6; slope = 0.99, 95% confidence interval: 0.8–1.2, R^2 = 0.99; values also shown in Extended Data Tables 1–3).\nThe binding affinity of compound-bound CYPA for the mutant oncogenic RAS proteins (Kd2) mentioned was assessed by SPR on a Biacore 8 K instrument. […] The SPR sensorgrams were fit using either a steady state affinity model or a 1:1 binding (kinetic) model to assess the dissociation constant (Kd) for RAS binding."}, "KRAS^G12R": {"target": "KRAS^G12R (Homo sapiens, UniProt P01116+P62937, G12R)", "assay": "Biochemical RAS–RAF (BRAF RBD) disruption, TR-FRET", "design": "made in house; host or cells: BL21(DE3) Escherichia coli", "settings": "(95% CI)", "excerpt": "(§2) Time-resolved fluorescence resonance energy transfer (TR-FRET) was used as previously described to assess disruption of the interactions between wild-type RAS or the mutant oncogenic RAS proteins and the RAS-binding domain of BRAF, and to assess the induction of interactions between the RAS proteins and CYPA[12]."}, "KRAS^G12D": {"target": "KRAS^G12D (Homo sapiens, UniProt P01116+P62937, G12D)", "assay": "Biochemical RAS–RAF (BRAF RBD) disruption, TR-FRET", "design": "made in house; host or cells: BL21(DE3) Escherichia coli", "settings": "(95% CI)", "excerpt": "as §2"}, "KRAS WT": {"target": "KRAS WT (Homo sapiens, UniProt P01116+P62937)", "assay": "Biochemical RAS–RAF (BRAF RBD) disruption, TR-FRET", "design": "made in house; host or cells: BL21(DE3) Escherichia coli", "excerpt": "as §2"}, "[1]": {"assay": "Mouse blood and tumour pharmacokinetics in NCI-H441 tumour bearing mice", "settings": "for RMC-7977 (nmol/kg) Tumor: single dose, individual animals", "procedure": "Tumour tissue samples were homogenized with a 10× volume of methanol/15 mM PBS (1:2, v:v). Sample preparation and analysis on a Sciex 6500+ triple quadrupole mass spectrometer equipped with an ACQUITY UPLC system were performed as previously described[12].\nAll datapoints shown, n = 3 per dose and timepoint.\nFemale BALB/c nude mice, NOD SCID and NSG mice 6-8 weeks old from Beijing Vital River/VR Laboratory Animal Co., LTD, Beijing AniKeeper Biotech Co., Ltd., Shanghai Sino-British SIPPR/BK Laboratory Animal Co., LTD and The Jackson Laboratory were used. Animals were housed in polycarbonate cages, in an environmentally monitored, well ventilated room maintained at a constant temperature of 20-26°C and relative humidity of 40-80%. Fluorescent lighting provided illumination approximately 12 hours per day. Each mouse was inoculated at the right flank with tumor cells (2x10^6-1x10^7) in 100-200 µL of media/PBS supplemented with Matrigel (1:1). Treatments were started when the average tumor size reached 100-250 mm^3. […] Mice on studies were weighed and tumor measurements collected twice weekly. […] Body weights were collected twice a week during the study. For single-dose pharmacokinetic/pharmacodynamics (PK/PD) study, mice were randomized into treatment groups when mean tumor volume reached 400-600 mm^3."}, "KRAS^G12V": {"target": "KRAS^G12V (Homo sapiens, UniProt P01116+P62937, G12V)", "assay": "Cellular RAS–CYPA binding (tri-complex formation), nano-BRET in U2OS cells", "format": "cell-based", "design": "expressed in transfected cells; host or cells: U2OS PPIA-KO", "settings": "for Cellular milliBRET signal between CYPA and KRAS G12V: KRASG12V, single replicates", "excerpt": "as §1"}, "KRAS^G12S": {"target": "KRAS^G12S (Homo sapiens, UniProt P01116+P62937, G12S)", "assay": "Cellular RAS–CYPA binding (tri-complex formation), nano-BRET in U2OS cells", "format": "cell-based", "design": "expressed in transfected cells; host or cells: U2OS PPIA-KO", "settings": "(95% CI)", "excerpt": "as §1"}, "[2]": {"settings": "female, BALB/c nude, mouse, tumour, po, 10 mg/kg"}, "[3]": {"settings": "female, BALB/c nude, mouse, whole blood, po, 10 mg/kg"}}, "note": "“And” between values parts separate entries of the source, which are not always exact repeats. Equal entries are not always repeated."}
{"smiles": "CCn1c(-c2cc(N3CCN(C4CC4)CC3)cnc2[C@H](C)OC)c2c3cc(ccc31)-c1csc(n1)C[C@H](NC(=O)[C@H]1[C@@H]3COC[C@@H]31)C(=O)N1CCC[C@H](N1)C(=O)OCC(C)(C)C2", "note": "[RMC-7977]", "values": [{"measurement": "mean tumour regression", "setting": "NCI-H441 CDX tumours", "value": 83, "unit": "%"}, {"measurement": "EC50", "setting": "KRAS^G12A", "value": 4.91, "unit": "nM"}, {"measurement": "EC50", "setting": "KRAS^Q61H", "value": 5.75, "unit": "nM"}, {"measurement": "Kd", "setting": "RAS", "value": "~100", "unit": "nM"}, {"measurement": "EC50", "setting": "KRAS^G12R", "value": 123, "unit": "nM"}, {"measurement": "EC50", "setting": "KRAS^G12D", "value": 176, "unit": "nM"}, {"measurement": "EC50", "setting": "KRAS WT", "value": 77, "unit": "nM"}, {"measurement": "AUC(0-t)", "setting": "[1]; [2]", "value": 24300, "unit": "ng·h/mL"}, {"measurement": "half-life", "setting": "[1]; [2]", "value": 18.3, "unit": "h"}, {"measurement": "AUC(0-t)", "setting": "[1]; [3]", "value": 7240, "unit": "ng·h/mL"}, {"measurement": "Cmax", "setting": "[1]; [3]", "value": 1110, "unit": "ng/mL"}, {"measurement": "half-life", "setting": "[1]; [3]", "value": 2.78, "unit": "h"}, {"measurement": "RMC-7977 (nmol/kg) Tumor", "setting": "[1]; 8h, 1 mg/kg", "value": "244 nmol/kg and 196 nmol/kg and 235 nmol/kg"}, {"measurement": "RMC-7977 (nmol/kg) Tumor", "setting": "[1]; 8h, 5 mg/kg", "value": "458 nmol/kg and 496 nmol/kg and 1040 nmol/kg"}, {"measurement": "RMC-7977 (nmol/kg) Tumor", "setting": "[1]; 8h, 10 mg/kg", "value": "998 nmol/kg and 832 nmol/kg and 1249 nmol/kg and 1135 nmol/kg and 713 nmol/kg and 1191 nmol/kg"}, {"measurement": "RMC-7977 (nmol/kg) Tumor", "setting": "[1]; 8h, 25 mg/kg", "value": "2289 nmol/kg and 4057 nmol/kg and 2196 nmol/kg"}, {"measurement": "RMC-7977 (nmol/kg) Tumor", "setting": "[1]; 24h, 1 mg/kg", "value": "38.1 nmol/kg and 54.8 nmol/kg and 48.3 nmol/kg"}, {"measurement": "RMC-7977 (nmol/kg) Tumor", "setting": "[1]; 24h, 5 mg/kg", "value": "201 nmol/kg and 183 nmol/kg and 226 nmol/kg"}, {"measurement": "RMC-7977 (nmol/kg) Tumor", "setting": "[1]; 24h, 10 mg/kg", "value": "310 nmol/kg and 343 nmol/kg and 320 nmol/kg and 402 nmol/kg and 316 nmol/kg and 606 nmol/kg"}, {"measurement": "RMC-7977 (nmol/kg) Tumor", "setting": "[1]; 24h, 25 mg/kg", "value": "1047 nmol/kg and 906 nmol/kg and 996 nmol/kg"}, {"measurement": "RMC-7977 (nmol/kg) Tumor", "setting": "[1]; 48h, 1 mg/kg", "value": "27 nmol/kg and 31.7 nmol/kg"}, {"measurement": "RMC-7977 (nmol/kg) Tumor", "setting": "[1]; 48h, 5 mg/kg", "value": "68.9 nmol/kg and 51.9 nmol/kg and 52.5 nmol/kg"}, {"measurement": "RMC-7977 (nmol/kg) Tumor", "setting": "[1]; 48h, 10 mg/kg", "value": "177 nmol/kg and 192 nmol/kg and 214 nmol/kg and 205 nmol/kg and 233 nmol/kg and 65.7 nmol/kg"}, {"measurement": "RMC-7977 (nmol/kg) Tumor", "setting": "[1]; 48h, 25 mg/kg", "value": "433 nmol/kg and 394 nmol/kg and 691 nmol/kg"}, {"measurement": "RMC-7977 (nmol/kg) Tumor", "setting": "[1]; 72h, 5 mg/kg", "value": "52.4 nmol/kg and 38.4 nmol/kg"}, {"measurement": "RMC-7977 (nmol/kg) Tumor", "setting": "[1]; 72h, 10 mg/kg", "value": "155 nmol/kg and 86.2 nmol/kg and 63.8 nmol/kg and 71.8 nmol/kg and 72 nmol/kg"}, {"measurement": "RMC-7977 (nmol/kg) Tumor", "setting": "[1]; 72h, 25 mg/kg", "value": "253 nmol/kg and 209 nmol/kg and 230 nmol/kg"}, {"measurement": "overall exposure in subcutaneous tumours compared with blood", "setting": "[1]; subcutaneous xenograft tumour models", "value": "approximately threefold increase"}, {"measurement": "Cellular milliBRET signal between CYPA and KRAS G12V", "setting": "KRAS^G12V; RMC-7977 0.152 nM", "value": "1.173 milliBRET and 1.06 milliBRET and 0.9358 milliBRET and 1.334 milliBRET and 1.012 milliBRET and 1.508 milliBRET"}, {"measurement": "Cellular milliBRET signal between CYPA and KRAS G12V", "setting": "KRAS^G12V; RMC-7977 0.457 nM", "value": "1.649 milliBRET and 2.359 milliBRET and 1.781 milliBRET and 2.809 milliBRET and 1.779 milliBRET and 2.2094 milliBRET"}, {"measurement": "Cellular milliBRET signal between CYPA and KRAS G12V", "setting": "KRAS^G12V; RMC-7977 1.372 nM", "value": "4.1167 milliBRET and 4.336 milliBRET and 3.9 milliBRET and 4.218 milliBRET and 4.578 milliBRET and 4.094 milliBRET"}, {"measurement": "Cellular milliBRET signal between CYPA and KRAS G12V", "setting": "KRAS^G12V; RMC-7977 4.115 nM", "value": "7.461 milliBRET and 7.409 milliBRET and 7.89 milliBRET and 7.071 milliBRET and 7.622 milliBRET and 7.676 milliBRET"}, {"measurement": "Cellular milliBRET signal between CYPA and KRAS G12V", "setting": "KRAS^G12V; RMC-7977 12.346 nM", "value": "11.4839 milliBRET and 11.5824 milliBRET and 12.0176 milliBRET and 11.1912 milliBRET and 11.5065 milliBRET and 11.1163 milliBRET"}, {"measurement": "Cellular milliBRET signal between CYPA and KRAS G12V", "setting": "KRAS^G12V; RMC-7977 37.037 nM", "value": "13.6301 milliBRET and 14.0182 milliBRET and 13.661 milliBRET and 13.6725 milliBRET and 13.3211 milliBRET and 13.487 milliBRET"}, {"measurement": "Cellular milliBRET signal between CYPA and KRAS G12V", "setting": "KRAS^G12V; RMC-7977 111.111 nM", "value": "14.1557 milliBRET and 14.0898 milliBRET and 14.0287 milliBRET and 13.9679 milliBRET and 13.745 milliBRET and 13.7924 milliBRET"}, {"measurement": "Cellular milliBRET signal between CYPA and KRAS G12V", "setting": "KRAS^G12V; RMC-7977 333.333 nM", "value": "14.0834 milliBRET and 13.7044 milliBRET and 13.6567 milliBRET and 12.9685 milliBRET and 13.078 milliBRET and 12.7653 milliBRET"}, {"measurement": "Cellular milliBRET signal between CYPA and KRAS G12V", "setting": "KRAS^G12V; RMC-7977 1000.000 nM", "value": "14.1055 milliBRET and 12.901 milliBRET and 13.6313 milliBRET and 12.8159 milliBRET and 14.3526 milliBRET and 13.1398 milliBRET"}, {"measurement": "EC50", "setting": "KRAS^G12V; KRAS^G12V, nano-BRET, (95% CI)", "value": 2.25, "unit": "nM"}, {"measurement": "EC50", "setting": "KRAS^G12S", "value": 2.24, "unit": "nM"}]}
